pIC50: −log10 of the molar value. “And” between values parts separate entries of the source, which are not always exact repeats. Identical values can stand only once. Like-named read-outs stand apart in the source and are kept apart here.
Key:
Syk = Syk (Homo sapiens, UniProt P43405); assay: Enzymatic Syk kinase activity assay; assay type: biochemical
[1] = tested on: TSLP production in NHBE cells; assay: TSLP HTRF assay (TSLP production in poly I:C / IL-4 stimulated NHBE cells); assay type: cell-based, human; settings: for IC50: 24 h, NHBE cells donor #1, poly I:C / IL-4, 24h, geometric mean, read-out: Inhibition of TSLP protein production (IC50, μM) (95% CI); for pIC50: individual values, donor #1, read-out: Inhibition of TSLP production in NHBE (IC50)
Description: For dose response curves determinations, stocks of test compounds at a concentration of 1.33x10^-3 M in DMSO were sequentially diluted at 1:4 dilution steps before further 1/50 dilution in BEBM medium containing 1x ITS and 0.1% BSA. For the highest 4 μM concentration test compounds were resuspended in DMSO at a concentration of 2.5x10^-3 M and diluted 1/25 in BEBM medium containing 1x ITS and 0.1% BSA before adding 1 μl to the wells containing the cells.
All subsequent steps were automated using a Sciclone® G3 workstation (Perkin Elmer) with a Twister™ II robot (Perkin Elmer). […] 1 μl of test compound solution prepared at 25x concentration was added to the wells containing NHBE cells. The plates were then incubated during 90 minutes at 37°C, 5% CO2, 90% humidity before adding poly I:C (Invivogen HMW Tirl-pic-5) and human IL-4 (Peprotech 200–04) stimulus in 4 μl of BEBM medium containing 1x ITS, 0.1% BSA and 0.1% DMSO using a Multidrop™. […] Cells were then incubated for 24h in the presence of test compounds and stimulus at 37°C, 5% CO2 and 90% humidity conditions. After the 24h incubation period the plates were transferred to a CyBi®-Well platform (CyBio AG) to collect 10 μl of the supernatants which were transferred to a new plate. TSLP levels in the supernatant were determined using a homogeneous Time-Resolved Fluorescence (HTRF) assay custom developed by Cisbio. The assay was based in the use of a donor dye (europium cryptate) coupled to a monoclonal anti-TSLP antibody and an acceptor dye (d2) coupled to a second polyclonal anti-TSLP antibody. […] 10 μl of the resulting solution was then used to determine TSLP levels as described above.
The standard curve was built with eight points prepared in ITS/BSA in BEBM medium without supplements, starting at 700 pg/ml and diluted 1:2, with medium alone being zero TSLP. Fitting model corresponded to equation 100 of Excel fit software. Data from the primary phenotypic screen was visualized using Vortex (Dotmatics). […] For compound selection the maximum inhibition of the two individual duplicate values was taken into account. Dose response confirmation was performed at single point in the 2 donors tested. 9 point curves were run starting at 4 μM concentration by doing serial 1:4 dilutions in cells derived from both donors.

CHO-K1 cells = assay: CHO-K1 viability (ATPlite); assay type: cell-based
Description: The viability of NHBE and CHO-K1 cells was quantified using ATP as an indirect read out of the potential cytotoxicity of the compounds. […] Plates were shaken and covered with aluminium foil for 25 min. Luminescence was measured in an Envision reader (Perkin Elmer). Evaluation of viability in CHO-K1 cells was used as an internal compound cytotoxicity standard across cellular assays. […] The plates were incubated for 24 h at 37°C in 5% CO2. After the incubation period, the culture medium was removed and washed with 100 μl of DPBS. Test compounds were dissolved and serially diluted in 100% DMSO. A final 1/100 dilution of each concentration was performed using F12 culture medium with 0.5% FBS. A volume of 100 μl culture medium containing the compounds or 1% DMSO (for control wells) was added to the wells containing the cells and the plate was incubated again 24h. After 24h of compound exposure, cells were washed with DPBS. Then, 100 μl of PBS were added, followed by the addition of 100 μl of ATPlite™ reagent. The plate was shaken for 25 minutes using a microtiter plate shaker. Luminescence was measured using a Luminoskan Ascent luminometer (Thermo Fisher Scientific).
For CHO-K1 viability assays, a standard curve of cells was included in the plate. Luminescence values versus cell number were plotted and the data adjusted to a linear equation. Luminescence values of the samples were interpolated to obtain number of cells. IC50 values were obtained by non-linear regression using Activity Base software (IDBS) and a four-parameter log equation.

LAD2 cells degranulation = assay: Syk dependent LAD2 cells degranulation; assay type: cell-based, human
Description: Normal human bronchial epithelial cells (NHBE) (Lonza CC-2540,) corresponding to 2 different lots derived from 2 human healthy donors, henceforth referred to as donors #1 and #2, were purchased from Lonza, who provided the cells after obtaining permission for use in research applications by informed consent. Cells were cultured in 5% CO2 at 37°C according to the manufacturer´s instructions using Lonza´s Bronchial Epithelial Basal Medium (BEBM) (CC-3171) supplemented with Lonza´s Bronchial Epithelial Cell Growth Medium bullet kit (BEGM) (CC-4175), and grown in collagen coated T-75 and T-175 tissue culture flasks as required (Becton Dickinson 356485 and 356487). Subculturing after trypsinization and amplification was performed using Lonza´s reagent pack subculture reagents (CC-5034) following the manufacturer´s instructions. CHO-K1 and THP-1 cells were purchased from the ATCC through LGC standards (ATCC CCL-61 and TIB-202 respectively). The LAD2 cell line is a human mast cell line established at the National Institutes of Health (Bethesda, Maryland, U.S.).
Quantification of enzymatic p38 activity and p38-dependent TNF production in THP-1 cells was performed as previously described. Enzymatic Syk kinase activity assays and Syk dependent LAD2 cells degranulation assays were performed as previously described. PI3Kδ dependent pAkt phosphorylation in macrophage colony-stimulating factor (M-CSF) stimulated THP-1 cells was measured as previously described.

[2] = tested on: TSLP mRNA levels in NHBE cells; assay: TSLP mRNA real-time PCR (qPCR) in NHBE cells; assay type: cell-based, human; set-up: TSLP mRNA upregulation (% versus control) / % Inhibition of mRNA: dose or concentration left out as unconfirmed; settings: for % Inhibition of mRNA at [4 μM] ± SD: NHBE donor #1, 6 h stimulation; for % Inhibition of mRNA: individual values, donor #1
[3] = individual values, read-out: Biochemical activity (IC50, mM) (Syk)
[4] = Homo sapiens, LAD2, geometric mean, read-out: Activity in reference cell based assay (IC50, μM) (95% CI) LAD2 cells degranulation
[5] = Homo sapiens, LAD2, individual values, read-out: Cellular activity (IC50, mM) LAD2 cells degranulation
[6] = individual values, read-out: Cellular activity (IC50, mM) LAD2 cells degranulation
[7] = geometric mean, read-out: Activity in reference biochemical assay (IC50, μM) (95% CI) Syk
[8] = Cricetulus griseus, CHO-K1, geometric mean, read-out: Inhibition of CHO viability (IC50, μM) (95% CI)
[9] = individual values, read-out: Inhibition of CHO viability (IC50 mM)

Row | SMILES | IC50 (Syk; [3]) | IC50 ([1]; Homo sapiens, NHBE) | pIC50 [1] | IC50 (LAD2 cells degranulation; [4]) | IC50 (LAD2 cells degranulation; [5]) | IC50 (LAD2 cells degranulation; [6]) | IC50 (Syk; [7]) | other results
1 | Nc1ncc(-c2ccc3cn[nH]c3c2)nc1C(=O)NC1C2CC3CC1CC(O)(C3)C2 (stereo not shown) [compound 14] | 209 nM and 159 nM | 0.359 µM | 6.63 and 6.09 and 6.61 | 0.403 µM | 0.409 µM | 0.398 µM | – | Inhibition of CHO viability % Inhibition ± SD at 3.75 μM (CHO-K1 cells): 42 % ± 10; Inhibition of CHO viability % at 3.75 micromolar (CHO-K1 cells; individual values): 51.55% and 51.37% and 30.13% and 37.95%
2 | COC(=O)Nc1nc2ccc(C(=O)c3cccs3)cc2[nH]1 [Nocodazole, reference compound] | – | 0.9 µM | 5.91 and 6.29 and 5.94 | – | – | – | – | % Inhibition of mRNA at [4 μM] ± SD [2]: 84.62 ± 1.76%; % Inhibition of mRNA [2]: 83.366% and 85.867%
3 | C[C@@H]1CCN(C(=O)CC#N)C[C@@H]1N(C)c1ncnc2[nH]ccc12 [Tofacitinib, reference compound] | – | – | – | – | – | – | – | Inhibition of CHO viability at [25 μM] % Inhibition ± SD (CHO-K1 cells; 25 μM): 0.37 ± 4.3%
4 | Nc1ncc(-c2ccc3[nH]ncc3c2)nc1C(=O)NC1C2CC3CC1CC(O)(C3)C2 (stereo not shown) [compound 13] | 397 nM and 280 nM | 0.19 µM | 6.44 and 6.79 and 6.94 | – | – | – | 334 nM | Inhibition of CHO viability % Inhibition ± SD at 3.12 μM (CHO-K1 cells): 36 % ± 3; Inhibition of CHO viability % at 3.12 micromolar (CHO-K1 cells; individual values): 39.6% and 37.7% and 35.3% and 31.4%
5 | C[C@@H]1O[C@@H](O[C@H]2C[C@@H](O)[C@]3(CO)[C@H]4[C@H](O)C[C@]5(C)[C@@H](C6=CC(=O)OC6)CC[C@]5(O)[C@@H]4CC[C@]3(O)C2)[C@H](O)[C@H](O)[C@H]1O [Ouabain, reference compound] | – | 0.016 µM | 7.89 and 7.85 | – | – | – | – | % Inhibition of mRNA at [4 μM] ± SD [2]: 94.64 ± 0.33%; % Inhibition of mRNA [2]: 94.409% and 94.877%; pIC50 ([1]; Homo sapiens, NHBE): 7.66
6 | COc1ccc(N(C)c2nc(C)nc3ccccc23)cc1 [compound 16] | – | 0.007 µM | – | – | – | – | – | IC50 (CHO-K1 cells; [8]): 28.8 µM; Inhibition of CHO viability % at 3.12 micromolar (CHO-K1 cells; individual values): 1.13% and 6.28% and -14.28% and -12.18%
7 | Cn1cc(-c2cccc(-c3cnc(N)c(C(=O)NC4C5CC6CC4CC(O)(C6)C5)n3)c2)cn1 (stereo not shown) [compound 12] | 25 nM and 21 nM | 0.253 µM | 6.42 and 6.60 and 6.76 | 0.118 µM | 0.107 µM | 0.131 µM | 22 nM | Inhibition of CHO viability % Inhibition ± SD at 3.75 μM (CHO-K1 cells): 19 % ± 1; Inhibition of CHO viability % at 3.75 micromolar (CHO-K1 cells; individual values): 20.7% and 17.8% and 20.2% and 20.8%
8 | CCn1cc(-c2cccc(-c3cnc(N)c(C(=O)NC4C5CC6CC4CC(O)(C6)C5)n3)c2)cn1 (stereo not shown) [compound 9] | 24 nM and 22 nM | 0.302 µM | 6.23 and 6.70 and 6.63 | 0.182 µM | 0.183 µM | 0.181 µM | – | IC50 (CHO-K1 cells; [8]): 7 µM; IC50 (CHO-K1 cells; [9]): 8.21 µM and 7.68 µM and 4.44 µM and 9.37 µM and 6.42 µM
9 | COc1cc(-c2cnn(C)c2)cc(-c2cnc(N)c(C(=O)N[C@@H]3[C@@H]4C[C@@H]5C[C@H]3C[C@@](O)(C5)C4)n2)c1 [compound 10] | 33.8 nM and 33.1 nM | 0.277 µM | 6.23 and 6.70 and 6.74 | 0.118 µM | 0.124 µM | 0.113 µM | 33 nM | Inhibition of CHO viability % Inhibition ± SD at 3.75 μM (CHO-K1 cells): 35.3 % ± 5.5; Inhibition of CHO viability % at 3.75 micromolar (CHO-K1 cells; individual values): 42.5% and 36.2% and 31.8% and 30%
10 | COc1ccc(-c2ccc3c(N4CCOC[C@@H]4C)nc(N4CCOC[C@@H]4C)nc3n2)cc1CO [AZD8055, reference compound] | – | 0.002 µM | 9.01 and 8.32 and 8.33 | – | – | – | – | Inhibition of CHO viability % Inhibition ± SD at 3.12 μM (CHO-K1 cells): 20.47% ± 4.6 (n = 4)
11 | COc1ccc(N(C)c2nc(NC/C=C(\C)CCC=C(C)C)nc3ccccc23)cc1 [compound 6] | – | 0.101 µM | 6.92 and 7.21 and 6.85 | – | – | – | – | % Inhibition of mRNA at [4 μM] ± SD [2]: 95.04 ± 0.77%; % Inhibition of mRNA [2]: 95.589% and 94.492%
12 | Nc1ncc(-c2cccc(-c3cccnc3)c2)nc1C(=O)NC1C2CC3CC1CC(O)(C3)C2 (stereo not shown) [compound 11] | 62 nM and 71 nM | 1.14 µM | 5.84 and 5.75 and 6.25 | 0.26 µM | 0.313 µM | 0.217 µM | 66 nM | IC50 (CHO-K1 cells; [8]): 7.85 µM; IC50 (CHO-K1 cells; Cricetulus griseus, CHO-K1, individual values, read-out: Inhibition of CHO viability (IC50 mM)): 8.33 µM; IC50 (CHO-K1 cells; [9]): 8.4 µM and 7.19 µM and 7.56 µM

Reference: paper PMC5761851, “Application of a phenotypic drug discovery strategy to identify biological and chemical starting points for inhibition of TSLP production in lung epithelial cells” (PLoS ONE, 2018)
